Measurements: US9242987B2, “Heterocyclyl pyrazolopyrimidine analogues as JAK inhibitors” (Cellzome Limited, priority 2009, dated 2016)

How the values were obtained:
JAK2 = target: T1, JAK2 (Homo sapiens, UniProt O60674); assay: Kinobeads assay, JAK2; format: binding; conditions: mixed Molt4/Ramos cell lysate, dot blot detection
T1 construct: endogenous in cells; host or cells: Mixed Molt4/Ramos lysate (1:2)
In short: (§1)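 Competition pulldown: compound dilution series incubated 3 h in cold room with immobilized aminopyrido-pyrimidine beads and mixed Molt4/Ramos lysate (1:2, 10 mg/mL protein) in DP buffer pH 7.4 with NP40. Bead-bound JAK2/JAK3 eluted, quantified by antibody dot blot with infrared detection; IC50 from dose-response curves.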

JAK3 = target: T2, JAK3 (Homo sapiens, UniProt P52333); assay: Kinobeads assay, JAK3; format: binding; conditions: mixed Molt4/Ramos cell lysate, dot blot detection
T2 construct: endogenous in cells; host or cells: Mixed Molt4/Ramos lysate (1:2)
T2 sequence (P52333 1-1124): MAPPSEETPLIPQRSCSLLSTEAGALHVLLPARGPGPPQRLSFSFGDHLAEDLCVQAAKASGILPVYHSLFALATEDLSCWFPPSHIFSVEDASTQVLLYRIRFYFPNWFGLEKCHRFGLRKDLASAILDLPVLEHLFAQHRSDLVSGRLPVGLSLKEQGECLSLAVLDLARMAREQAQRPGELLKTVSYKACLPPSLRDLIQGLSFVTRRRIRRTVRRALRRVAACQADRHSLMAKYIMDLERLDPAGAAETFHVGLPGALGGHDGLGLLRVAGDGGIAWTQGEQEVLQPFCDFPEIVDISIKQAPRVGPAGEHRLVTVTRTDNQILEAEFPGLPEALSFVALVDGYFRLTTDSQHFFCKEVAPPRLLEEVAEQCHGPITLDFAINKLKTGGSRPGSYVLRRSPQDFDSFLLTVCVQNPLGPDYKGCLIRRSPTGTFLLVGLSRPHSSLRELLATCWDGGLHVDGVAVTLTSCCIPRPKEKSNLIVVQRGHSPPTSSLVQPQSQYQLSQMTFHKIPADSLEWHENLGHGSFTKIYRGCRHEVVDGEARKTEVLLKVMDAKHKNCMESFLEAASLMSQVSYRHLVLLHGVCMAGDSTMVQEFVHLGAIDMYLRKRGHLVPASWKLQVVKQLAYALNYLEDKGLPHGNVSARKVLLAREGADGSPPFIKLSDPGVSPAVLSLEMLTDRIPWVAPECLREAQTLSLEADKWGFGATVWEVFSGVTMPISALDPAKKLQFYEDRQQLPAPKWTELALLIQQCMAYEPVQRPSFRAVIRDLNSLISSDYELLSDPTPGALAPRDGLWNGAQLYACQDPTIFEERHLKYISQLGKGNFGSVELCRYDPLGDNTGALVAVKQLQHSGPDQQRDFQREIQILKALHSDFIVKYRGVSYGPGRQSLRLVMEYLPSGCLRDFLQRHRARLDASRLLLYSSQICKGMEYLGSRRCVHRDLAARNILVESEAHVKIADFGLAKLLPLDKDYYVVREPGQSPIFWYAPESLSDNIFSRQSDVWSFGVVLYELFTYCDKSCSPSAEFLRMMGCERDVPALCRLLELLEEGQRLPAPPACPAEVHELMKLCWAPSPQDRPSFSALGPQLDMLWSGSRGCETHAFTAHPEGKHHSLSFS
In short: as §1

T1 sequence (O60674 whole entry): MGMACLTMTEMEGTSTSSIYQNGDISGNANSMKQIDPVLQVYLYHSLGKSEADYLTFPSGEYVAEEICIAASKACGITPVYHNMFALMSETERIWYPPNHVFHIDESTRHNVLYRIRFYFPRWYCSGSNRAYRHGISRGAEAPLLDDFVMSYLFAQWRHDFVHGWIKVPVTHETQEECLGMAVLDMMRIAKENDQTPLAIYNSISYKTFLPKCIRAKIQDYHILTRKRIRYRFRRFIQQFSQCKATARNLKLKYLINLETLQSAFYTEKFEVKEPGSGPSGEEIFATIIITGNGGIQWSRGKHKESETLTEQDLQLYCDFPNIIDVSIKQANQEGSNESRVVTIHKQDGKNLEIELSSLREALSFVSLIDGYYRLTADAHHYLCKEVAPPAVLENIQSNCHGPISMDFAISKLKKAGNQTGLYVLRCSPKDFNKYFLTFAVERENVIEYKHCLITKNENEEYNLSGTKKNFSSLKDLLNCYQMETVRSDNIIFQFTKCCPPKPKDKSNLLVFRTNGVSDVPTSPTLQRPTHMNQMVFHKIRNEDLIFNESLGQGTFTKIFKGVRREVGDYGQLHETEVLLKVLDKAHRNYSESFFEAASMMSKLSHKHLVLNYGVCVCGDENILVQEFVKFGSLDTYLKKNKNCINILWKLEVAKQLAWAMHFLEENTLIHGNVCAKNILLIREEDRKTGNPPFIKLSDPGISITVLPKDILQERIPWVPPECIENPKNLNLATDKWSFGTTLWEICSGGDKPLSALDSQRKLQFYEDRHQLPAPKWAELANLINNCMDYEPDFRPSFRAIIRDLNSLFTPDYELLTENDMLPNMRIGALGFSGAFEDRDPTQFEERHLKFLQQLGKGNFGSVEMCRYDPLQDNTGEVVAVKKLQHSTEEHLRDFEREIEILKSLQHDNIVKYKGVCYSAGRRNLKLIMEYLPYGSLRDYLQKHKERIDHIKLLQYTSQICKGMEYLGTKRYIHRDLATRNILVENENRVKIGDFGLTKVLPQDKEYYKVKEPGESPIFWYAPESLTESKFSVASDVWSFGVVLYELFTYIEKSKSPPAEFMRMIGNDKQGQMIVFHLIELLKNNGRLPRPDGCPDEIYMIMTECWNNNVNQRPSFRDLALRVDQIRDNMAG

IC50 (JAK2) [nM] | IC50 (JAK3) [nM] | SMILES
≥ 10000 | 100 to 1000 | CCCn1cc(Nc2ncc3cnn(Cc4ccccc4C#N)c3n2)c(C)n1 [Example 21, 2-((6-(3-Methyl-1-propyl-1H-pyrazol-4-ylamino)-1H-pyrazolo[3,4-d]pyrimidin-1-yl)methyl)benzonitrile]
≥ 10000 | 100 to 1000 | OCCn1ccc(Nc2ncc3cnn(Cc4ccccc4F)c3n2)n1 [Example 238, 2-(3-((1-(2-Fluorobenzyl)-1H-pyrazolo[3,4-d]pyrimidin-6-yl)amino)-1H-pyrazol-1-yl)ethanol]
100 to 1000 | < 100 | Cn1cc(Nc2ncc3cnn(-c4ccc5c(c4)NC(=O)CO5)c3n2)cn1 [Example 219, 6-(6-((1-Methyl-1H-pyrazol-4-yl)amino)-1H-pyrazolo[3,4-d]pyrimidin-1-yl)-2H-benzo[b][1,4]oxazin-3(4H)-one]
100 to 1000 | < 100 | N#Cc1ccc(F)cc1Cn1ncc2cnc(Nc3cnn(CC(F)F)c3)nc21 [Example 130, 2-((6-((1-(2,2-Difluoroethyl)-1H-pyrazol-4-yl)amino)-1H-pyrazolo[3,4-d]pyrimidin-1-yl)methyl)-4-fluorobenzonitrile]
1000 to 10000 | < 100 | COc1ccccc1Cn1ncc2cnc(Nc3cnn(C)c3)nc21 [Example 87, 1-(2-Methoxybenzyl)-N-(1-methyl-1H-pyrazol-4-yl)-1H-pyrazolo[3,4-d]pyrimidin-6-amine]
1000 to 10000 | < 100 | Cn1cc(Nc2ncc3cnn(Cc4ccccc4CO)c3n2)cn1 [Example 92, (2-((6-((1-Methyl-1H-pyrazol-4-yl)amino)-1H-pyrazolo[3,4-d]pyrimidin-1-yl)methyl)phenyl)methanol]
≥ 10000 | 100 to 1000 | C[C@@H]1CN(c2cccc(Cn3ncc4cnc(Nc5cnn(C)c5)nc43)c2)C[C@H](C)O1 [Example 175, 1-(3-((2S,6R)-2,6-Dimethylmorpholino)benzyl)-N-(1-methyl-1H-pyrazol-4-yl)-1H-pyrazolo[3,4-d]pyrimidin-6-amine]
≥ 10000 | 1000 to 10000 | CC(C)n1ccc(Nc2ncc3cnn(Cc4ccccc4C#N)c3n2)n1 [Example 19, 2-((6-(1-Isopropyl-1H-pyrazol-3-ylamino)-1H-pyrazolo[3,4-d]pyrimidin-1-yl)methyl)benzonitrile]
100 to 1000 | < 100 | Cn1cc(Nc2ncc3cnn(-c4ccc(NS(C)(=O)=O)cc4)c3n2)cn1 [Example 18, N-(4-(6-(1-Methyl-1H-pyrazol-4-ylamino)-1H-pyrazolo[3,4-d]pyrimidin-1-yl)phenyl)methanesulfonamide]
1000 to 10000 | < 100 | COc1nn(CC(F)F)cc1Nc1ncc2cnn(Cc3cc(F)ccc3F)c2n1 [Example 152, 1-(2,5-Difluorobenzyl)-N-(1-(2,2-difluoroethyl)-3-methoxy-1H-pyrazol-4-yl)-1H-pyrazolo[3,4-d]pyrimidin-6-amine]
≥ 10000 | 100 to 1000 | Cc1nn(C)cc1Nc1ncc2cnn(Cc3ccccc3)c2n1 [Example 110, 1-Benzyl-N-(1,3-dimethyl-1H-pyrazol-4-yl)-1H-pyrazolo[3,4-d]pyrimidin-6-amine]
1000 to 10000 | < 100 | Fc1ccccc1Cn1ncc2cnc(Nc3cnn(CCC4CCOCC4)c3)nc21 [Example 165, 1-(2-Fluorobenzyl)-N-(1-(2-(tetrahydro-2H-pyran-4-yl)ethyl)-1H-pyrazol-4-yl)-1H-pyrazolo[3,4-d]pyrimidin-6-amine]
1000 to 10000 | < 100 | Fc1ccccc1Cn1ncc2cnc(Nc3cn[nH]c3)nc21 [Example 88, 1-(2-Fluorobenzyl)-N-(1H-pyrazol-4-yl)-1H-pyrazolo[3,4-d]pyrimidin-6-amine]
≥ 10000 | 100 to 1000 | Cn1cc(Nc2ncc3cnn(Cc4ccccc4Oc4ccccc4)c3n2)cn1 [Example 224, N-(1-Methyl-1H-pyrazol-4-yl)-1-(2-phenoxybenzyl)-1H-pyrazolo[3,4-d]pyrimidin-6-amine]
